{"source": "the supplement of paper PMC10307832", "experiment_in_all_cases": "relative viability (nuclei count vs DMSO), 5 days (fraction); higher = more cells survive", "key": {"[1]": {"system": "201T", "outline": "(§1)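 Cells from lung cancer lines were seeded into 1536-well plates and, one day later, dosed by pin tool. Treatments were either a single drug or a fixed dose of an anchor drug with five library-drug doses (not always all listed) in √10 steps. After 5 days, nuclei were stained in a one-step fixation (final 0.05% Triton X-100, 1% formaldehyde, 1 ug/ml Hoechst) and counted on 4× images, and relative viability is the treated-to-vehicle nuclei ratio, as the median of duplicate plates.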"}, "[2]": {"system": "EKVX", "outline": "as §1"}, "[3]": {"system": "HCC-44", "outline": "as §1"}, "[4]": {"system": "BEN", "outline": "as §1"}, "[5]": {"system": "LK-2", "outline": "as §1"}, "[6]": {"system": "NCI-H2023", "outline": "as §1"}, "[7]": {"system": "NCI-H358", "outline": "as §1"}, "[8]": {"system": "COR-L 105", "outline": "as §1"}, "[9]": {"system": "NCI-H1563", "outline": "as §1"}, "[10]": {"system": "SW 900", "outline": "as §1"}, "[11]": {"system": "HCC-15", "outline": "as §1"}, "[12]": {"system": "NCI-H520", "outline": "as §1"}, "[13]": {"system": "NCI-H838", "outline": "as §1"}, "[14]": {"system": "PC-3 [JPC-3]", "outline": "as §1"}, "[15]": {"system": "NCI-H322M", "outline": "as §1"}, "[16]": {"system": "NCI-H1651", "outline": "as §1"}, "[17]": {"system": "CAL-12T", "outline": "as §1"}, "[18]": {"system": "LU99A", "outline": "as §1"}, "[19]": {"system": "NCI-H522", "outline": "as §1"}, "[20]": {"system": "NCI-H460", "outline": "as §1"}, "[21]": {"system": "EMC-BAC-2", "outline": "as §1"}}, "data": [{"smiles": "CCNC(=O)c1noc(-c2cc(C(C)C)c(O)cc2O)c1-c1ccc(CN2CCOCC2)cc1", "note": "[Luminespib] + Nc1nc2[nH]cc(CCc3ccc(C(=O)N[C@@H](CCC(=O)O)C(=O)O)cc3)c2c(=O)[nH]1 [Pemetrexed] (partner 0.2 µM)", "values": [{"measurement": "relative viability", "setting": "[1]; first compound 0.002 µM", "value": 0.333}, {"measurement": "relative viability", "setting": "[1]; first compound 0.006325 µM", "value": 0.311}, {"measurement": "relative viability", "setting": "[1]; first compound 0.02 µM", "value": 0.346}, {"measurement": "relative viability", "setting": "[1]; first compound 0.06325 µM", "value": 0.359}, {"measurement": "relative viability", "setting": "[1]; first compound 0.2 µM", "value": 0.206}, {"measurement": "relative viability", "setting": "[2]; first compound 0.002 µM", "value": 0.417}, {"measurement": "relative viability", "setting": "[2]; first compound 0.006325 µM", "value": 0.255}, {"measurement": "relative viability", "setting": "[2]; first compound 0.02 µM", "value": 0.408}, {"measurement": "relative viability", "setting": "[2]; first compound 0.06325 µM", "value": 0.258}, {"measurement": "relative viability", "setting": "[2]; first compound 0.2 µM", "value": 0.115}, {"measurement": "relative viability", "setting": "[3]; first compound 0.002 µM", "value": 0.613}, {"measurement": "relative viability", "setting": "[3]; first compound 0.006325 µM", "value": 0.611}, {"measurement": "relative viability", "setting": "[3]; first compound 0.02 µM", "value": 0.773}, {"measurement": "relative viability", "setting": "[3]; first compound 0.06325 µM", "value": 0.659}, {"measurement": "relative viability", "setting": "[3]; first compound 0.2 µM", "value": 0.657}, {"measurement": "relative viability", "setting": "[4]; first compound 0.002 µM", "value": 0.805}, {"measurement": "relative viability", "setting": "[4]; first compound 0.006325 µM", "value": 0.584}, {"measurement": "relative viability", "setting": "[4]; first compound 0.02 µM", "value": 0.463}, {"measurement": "relative viability", "setting": "[4]; first compound 0.06325 µM", "value": 0.5}, {"measurement": "relative viability", "setting": "[4]; first compound 0.2 µM", "value": 0.252}, {"measurement": "relative viability", "setting": "[5]; first compound 0.002 µM", "value": 0.299}, {"measurement": "relative viability", "setting": "[5]; first compound 0.006325 µM", "value": 0.159}, {"measurement": "relative viability", "setting": "[5]; first compound 0.02 µM", "value": 0.221}, {"measurement": "relative viability", "setting": "[5]; first compound 0.06325 µM", "value": 0.0902}, {"measurement": "relative viability", "setting": "[5]; first compound 0.2 µM", "value": 0.0524}, {"measurement": "relative viability", "setting": "[6]; first compound 0.002 µM", "value": 0.28}, {"measurement": "relative viability", "setting": "[6]; first compound 0.006325 µM", "value": 0.244}, {"measurement": "relative viability", "setting": "[6]; first compound 0.02 µM", "value": 0.0961}, {"measurement": "relative viability", "setting": "[6]; first compound 0.06325 µM", "value": 0.071}, {"measurement": "relative viability", "setting": "[6]; first compound 0.2 µM", "value": 0.0739}, {"measurement": "relative viability", "setting": "[7]; first compound 0.002 µM", "value": 0.186}, {"measurement": "relative viability", "setting": "[7]; first compound 0.006325 µM", "value": 0.16}, {"measurement": "relative viability", "setting": "[7]; first compound 0.02 µM", "value": 0.167}, {"measurement": "relative viability", "setting": "[7]; first compound 0.06325 µM", "value": 0.147}, {"measurement": "relative viability", "setting": "[7]; first compound 0.2 µM", "value": 0.078}, {"measurement": "relative viability", "setting": "[8]; first compound 0.002 µM", "value": 1.11}, {"measurement": "relative viability", "setting": "[8]; first compound 0.006325 µM", "value": 0.952}, {"measurement": "relative viability", "setting": "[8]; first compound 0.02 µM", "value": 1.18}, {"measurement": "relative viability", "setting": "[8]; first compound 0.06325 µM", "value": 0.593}, {"measurement": "relative viability", "setting": "[8]; first compound 0.2 µM", "value": 0.24}, {"measurement": "relative viability", "setting": "[9]; first compound 0.002 µM", "value": 0.808}, {"measurement": "relative viability", "setting": "[9]; first compound 0.006325 µM", "value": 0.599}, {"measurement": "relative viability", "setting": "[9]; first compound 0.02 µM", "value": 0.668}, {"measurement": "relative viability", "setting": "[9]; first compound 0.06325 µM", "value": 0.402}, {"measurement": "relative viability", "setting": "[9]; first compound 0.2 µM", "value": 0.41}, {"measurement": "relative viability", "setting": "[10]; first compound 0.002 µM", "value": 0.492}, {"measurement": "relative viability", "setting": "[10]; first compound 0.006325 µM", "value": 0.512}, {"measurement": "relative viability", "setting": "[10]; first compound 0.02 µM", "value": 0.427}, {"measurement": "relative viability", "setting": "[10]; first compound 0.06325 µM", "value": 0.133}, {"measurement": "relative viability", "setting": "[10]; first compound 0.2 µM", "value": 0.146}, {"measurement": "relative viability", "setting": "[11]; first compound 0.002 µM", "value": 0.219}, {"measurement": "relative viability", "setting": "[11]; first compound 0.006325 µM", "value": 0.236}, {"measurement": "relative viability", "setting": "[11]; first compound 0.02 µM", "value": 0.214}, {"measurement": "relative viability", "setting": "[11]; first compound 0.06325 µM", "value": 0.193}, {"measurement": "relative viability", "setting": "[11]; first compound 0.2 µM", "value": 0.137}, {"measurement": "relative viability", "setting": "[12]; first compound 0.002 µM", "value": 0.691}, {"measurement": "relative viability", "setting": "[12]; first compound 0.006325 µM", "value": 0.699}, {"measurement": "relative viability", "setting": "[12]; first compound 0.02 µM", "value": 0.792}, {"measurement": "relative viability", "setting": "[12]; first compound 0.06325 µM", "value": 0.135}, {"measurement": "relative viability", "setting": "[12]; first compound 0.2 µM", "value": 0.13}, {"measurement": "relative viability", "setting": "[13]; first compound 0.002 µM", "value": 0.265}, {"measurement": "relative viability", "setting": "[13]; first compound 0.006325 µM", "value": 0.256}, {"measurement": "relative viability", "setting": "[13]; first compound 0.02 µM", "value": 0.284}, {"measurement": "relative viability", "setting": "[13]; first compound 0.06325 µM", "value": 0.141}, {"measurement": "relative viability", "setting": "[13]; first compound 0.2 µM", "value": 0.177}, {"measurement": "relative viability", "setting": "[14]; first compound 0.002 µM", "value": 0.706}, {"measurement": "relative viability", "setting": "[14]; first compound 0.006325 µM", "value": 0.342}, {"measurement": "relative viability", "setting": "[14]; first compound 0.02 µM", "value": 0.681}, {"measurement": "relative viability", "setting": "[14]; first compound 0.06325 µM", "value": 0.357}, {"measurement": "relative viability", "setting": "[14]; first compound 0.2 µM", "value": 0.272}, {"measurement": "relative viability", "setting": "[15]; first compound 0.002 µM", "value": 0.638}, {"measurement": "relative viability", "setting": "[15]; first compound 0.006325 µM", "value": 0.507}, {"measurement": "relative viability", "setting": "[15]; first compound 0.02 µM", "value": 0.596}, {"measurement": "relative viability", "setting": "[15]; first compound 0.06325 µM", "value": 0.409}, {"measurement": "relative viability", "setting": "[15]; first compound 0.2 µM", "value": 0.376}, {"measurement": "relative viability", "setting": "[16]; first compound 0.002 µM", "value": 0.555}, {"measurement": "relative viability", "setting": "[16]; first compound 0.006325 µM", "value": 0.536}, {"measurement": "relative viability", "setting": "[16]; first compound 0.02 µM", "value": 0.474}, {"measurement": "relative viability", "setting": "[16]; first compound 0.06325 µM", "value": 0.646}, {"measurement": "relative viability", "setting": "[16]; first compound 0.2 µM", "value": 0.443}, {"measurement": "relative viability", "setting": "[17]; first compound 0.002 µM", "value": 1.23}, {"measurement": "relative viability", "setting": "[17]; first compound 0.006325 µM", "value": 0.988}, {"measurement": "relative viability", "setting": "[17]; first compound 0.02 µM", "value": 0.906}, {"measurement": "relative viability", "setting": "[17]; first compound 0.06325 µM", "value": 0.146}, {"measurement": "relative viability", "setting": "[17]; first compound 0.2 µM", "value": 0.124}, {"measurement": "relative viability", "setting": "[18]; first compound 0.002 µM", "value": 0.192}, {"measurement": "relative viability", "setting": "[18]; first compound 0.006325 µM", "value": 0.198}, {"measurement": "relative viability", "setting": "[18]; first compound 0.02 µM", "value": 0.177}, {"measurement": "relative viability", "setting": "[18]; first compound 0.06325 µM", "value": 0.168}, {"measurement": "relative viability", "setting": "[18]; first compound 0.2 µM", "value": 0.127}, {"measurement": "relative viability", "setting": "[19]; first compound 0.002 µM", "value": 1.01}, {"measurement": "relative viability", "setting": "[19]; first compound 0.006325 µM", "value": 0.974}, {"measurement": "relative viability", "setting": "[19]; first compound 0.02 µM", "value": 0.855}, {"measurement": "relative viability", "setting": "[19]; first compound 0.06325 µM", "value": 0.675}, {"measurement": "relative viability", "setting": "[19]; first compound 0.2 µM", "value": 0.353}, {"measurement": "relative viability", "setting": "[20]; first compound 0.002 µM", "value": 0.0608}, {"measurement": "relative viability", "setting": "[20]; first compound 0.006325 µM", "value": 0.0558}, {"measurement": "relative viability", "setting": "[20]; first compound 0.02 µM", "value": 0.0687}, {"measurement": "relative viability", "setting": "[20]; first compound 0.06325 µM", "value": 0.0359}, {"measurement": "relative viability", "setting": "[20]; first compound 0.2 µM", "value": 0.0287}, {"measurement": "relative viability", "setting": "[21]; first compound 0.002 µM", "value": 0.467}, {"measurement": "relative viability", "setting": "[21]; first compound 0.006325 µM", "value": 0.287}, {"measurement": "relative viability", "setting": "[21]; first compound 0.02 µM", "value": 0.573}, {"measurement": "relative viability", "setting": "[21]; first compound 0.06325 µM", "value": 0.383}, {"measurement": "relative viability", "setting": "[21]; first compound 0.2 µM", "value": 0.444}]}]}
